The source made the active and inactive calls. The calls are words filed in the database; no cut-off is given here.
What was measured:
[1] = target: Voltage-gated inwardly rectifying potassium channel KCNH2 (Homo sapiens, UniProt Q12809); experiment: Inhibition of human ERG by patch clamp assay; assay type: toxicity
LNCaP = experiment: Antiproliferative activity against human LNCaP cells incubated for 6 days by CellTiter-Glo assay; assay type: functional, cell-based
[2] = target: T1, Androgen receptor (Homo sapiens) (UniProt P10275); experiment: Potency index, ratio of galeterone DC50 to test compound DC50 for induction of androgen receptor degradation in human LNCaP cells; assay type: cell-based
T1 sequence (whole entry): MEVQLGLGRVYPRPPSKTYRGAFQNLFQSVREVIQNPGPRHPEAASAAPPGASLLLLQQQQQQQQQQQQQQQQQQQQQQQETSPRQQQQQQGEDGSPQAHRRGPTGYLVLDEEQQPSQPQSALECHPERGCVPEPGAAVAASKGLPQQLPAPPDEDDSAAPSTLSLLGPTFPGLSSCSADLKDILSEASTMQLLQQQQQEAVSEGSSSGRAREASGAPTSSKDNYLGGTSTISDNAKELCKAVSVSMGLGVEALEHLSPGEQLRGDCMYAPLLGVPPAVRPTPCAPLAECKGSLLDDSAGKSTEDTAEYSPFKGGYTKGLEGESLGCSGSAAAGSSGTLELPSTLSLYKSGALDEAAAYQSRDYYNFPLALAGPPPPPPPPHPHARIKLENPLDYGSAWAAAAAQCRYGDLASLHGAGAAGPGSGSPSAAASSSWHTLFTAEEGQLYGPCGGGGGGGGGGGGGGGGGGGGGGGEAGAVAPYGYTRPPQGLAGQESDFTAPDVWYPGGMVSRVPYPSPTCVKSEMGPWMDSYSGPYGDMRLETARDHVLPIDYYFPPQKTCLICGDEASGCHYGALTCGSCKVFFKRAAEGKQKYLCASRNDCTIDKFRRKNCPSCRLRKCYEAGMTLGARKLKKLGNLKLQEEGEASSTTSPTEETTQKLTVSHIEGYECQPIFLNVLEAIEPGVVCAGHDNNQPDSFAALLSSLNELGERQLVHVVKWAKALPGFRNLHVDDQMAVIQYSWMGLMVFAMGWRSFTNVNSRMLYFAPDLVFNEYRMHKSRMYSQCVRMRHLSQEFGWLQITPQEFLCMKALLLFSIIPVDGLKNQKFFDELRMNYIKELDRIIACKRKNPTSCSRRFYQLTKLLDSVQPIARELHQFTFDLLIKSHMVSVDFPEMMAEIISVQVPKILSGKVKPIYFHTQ

Androgen receptor = target: T2, Androgen receptor (Homo sapiens, UniProt P10275); experiment: Induction of androgen receptor degradation in human LNCaP cells incubated for 24 hrs by ELISA; assay type: cell-based
T2 sequence (P10275 whole entry): T1 sequence (whole entry)

Mus musculus = experiment: In vivo induction of androgen receptor in human LNCaP/AR cells xenografted in SCID mouse assessed as reduction in PSA level at 10 to 30 mg/kg, po administered once daily for 28 days by ELISA; assay type: functional, organism-based; conditions: dose 10-30 mg/kg, time 28.0 day
[3] = target: T1, Androgen receptor (Homo sapiens); experiment: Induction of androgen receptor degradation in human LNCaP cells assessed as reduction in AR mRNA level incubated for 24 hrs by qPCR analysis; assay type: cell-based; conditions: dose 1-20 µM
[4] = target: Androgen receptor (Homo sapiens) (UniProt P10275); experiment: In vivo induction of androgen receptor in human LNCaP/AR cells xenografted in SCID mouse assessed as reduction in AR protein level at 10 mg/kg, po administered once daily for 28 days by ELISA; set-up: scale not given: the % may be the effect or the level left; conditions: time 28.0 day
LNCaP/AR = experiment: Antitumor activity against human LNCaP/AR cells xenografted in SCID male mouse assessed as tumor growth inhibition at 30 mg/kg, po administered once daily for 28 days and measured every 3 days; assay type: functional, organism-based; conditions: time 28.0 day
[5] = target: T1, Androgen receptor (Homo sapiens); experiment: Induction of androgen receptor degradation in human VCaP cells incubated for 24 hrs by Western blot analysis; assay type: cell-based; conditions: dose 1-20 µM
[6] = target: T1, Androgen receptor (Homo sapiens); experiment: Induction of androgen receptor degradation in human LNCaP cells incubated for 24 hrs by Western blot analysis; assay type: cell-based; conditions: dose 1-20 µM
[7] = target: T1, Androgen receptor (Homo sapiens); experiment: Induction of androgen receptor degradation in human LNCaP cells at 20 uM incubated for 24 hrs; assay type: cell-based
[8] = target: Androgen receptor (Homo sapiens) (UniProt P10275); experiment: In vivo induction of androgen receptor in human LNCaP/AR cells xenografted in SCID mouse assessed as reduction in AR protein level at 30 mg/kg, po administered once daily for 28 days by ELISA; set-up: scale not given: the % may be the effect or the level left; conditions: time 28.0 day
[9] = test system: Androgen receptor (Homo sapiens), P10275 [F877L]; experiment: Antagonist activity at androgen receptor F876L mutant expressed in HEK293 cells assessed as reduction in DHT-induced transcriptional activation of androgen receptor incubated for 24 hrs by Steady-Glo assay relative to control; assay type: cell-based; set-up: scale not given: the % may be the effect or the level left; conditions: filed as antagonist
[10] = target: T1, Androgen receptor (Homo sapiens); experiment: Induction of androgen receptor degradation in human 22Rv1 cells incubated for 24 hrs by Western blot analysis; assay type: cell-based; conditions: dose 1-20 µM
LNCaP C4-2B = experiment: Antitumor activity against enzalutamide resistant human LNCaP C4-2B cells xenografted in BALB/c mouse assessed as tumor growth suppression at 10 mg/kg, po administered once daily for 28 days and measured every 3 days; assay type: functional, organism-based; conditions: time 28.0 day
[11] = target: T1, Androgen receptor (Homo sapiens); experiment: Induction of androgen receptor degradation in human LNCaP cells at 20 uM incubated for 24 hrs in presence of MG-132; assay type: cell-based
22Rv1 = experiment: Induction of androgen receptor splice variant 7 degradation in human 22Rv1 cells at 1 to 20 uM incubated for 24 hrs by Western blot analysis; assay type: cell-based; conditions: dose 1-20 µM

Voltage-gated inwardly rectifying potassium channel KCNH2, sequence (Q12809 whole entry): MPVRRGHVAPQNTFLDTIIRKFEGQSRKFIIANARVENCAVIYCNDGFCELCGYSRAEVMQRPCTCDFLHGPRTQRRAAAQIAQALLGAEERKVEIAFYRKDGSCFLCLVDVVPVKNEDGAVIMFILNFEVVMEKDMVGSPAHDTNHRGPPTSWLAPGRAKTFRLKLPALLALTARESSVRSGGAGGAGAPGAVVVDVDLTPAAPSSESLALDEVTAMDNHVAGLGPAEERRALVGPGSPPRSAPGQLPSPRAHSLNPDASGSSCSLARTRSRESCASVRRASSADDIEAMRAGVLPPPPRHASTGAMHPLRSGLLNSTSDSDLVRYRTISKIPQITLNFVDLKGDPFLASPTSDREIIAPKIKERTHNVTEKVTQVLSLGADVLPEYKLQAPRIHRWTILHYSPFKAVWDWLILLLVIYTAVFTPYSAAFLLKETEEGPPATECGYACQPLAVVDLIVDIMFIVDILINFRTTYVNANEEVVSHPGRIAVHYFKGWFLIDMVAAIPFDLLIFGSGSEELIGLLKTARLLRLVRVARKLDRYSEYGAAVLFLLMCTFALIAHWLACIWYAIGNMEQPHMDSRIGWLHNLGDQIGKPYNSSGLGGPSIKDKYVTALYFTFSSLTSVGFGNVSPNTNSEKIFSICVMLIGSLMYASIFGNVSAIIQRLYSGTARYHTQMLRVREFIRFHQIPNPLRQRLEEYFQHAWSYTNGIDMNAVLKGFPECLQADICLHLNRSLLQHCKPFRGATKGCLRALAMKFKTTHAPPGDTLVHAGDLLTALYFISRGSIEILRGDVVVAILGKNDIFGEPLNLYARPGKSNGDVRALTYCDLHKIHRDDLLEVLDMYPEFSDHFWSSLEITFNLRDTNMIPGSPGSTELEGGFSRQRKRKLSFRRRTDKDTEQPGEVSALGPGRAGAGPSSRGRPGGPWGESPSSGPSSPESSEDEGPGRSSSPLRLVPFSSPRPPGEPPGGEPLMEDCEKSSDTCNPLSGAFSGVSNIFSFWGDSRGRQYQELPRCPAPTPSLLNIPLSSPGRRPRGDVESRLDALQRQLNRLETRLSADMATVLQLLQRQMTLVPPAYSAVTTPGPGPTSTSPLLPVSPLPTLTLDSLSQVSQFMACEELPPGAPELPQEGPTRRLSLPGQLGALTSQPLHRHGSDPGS
Androgen receptor (Homo sapiens), P10275 [F877L], sequence (P10275 whole entry F877L): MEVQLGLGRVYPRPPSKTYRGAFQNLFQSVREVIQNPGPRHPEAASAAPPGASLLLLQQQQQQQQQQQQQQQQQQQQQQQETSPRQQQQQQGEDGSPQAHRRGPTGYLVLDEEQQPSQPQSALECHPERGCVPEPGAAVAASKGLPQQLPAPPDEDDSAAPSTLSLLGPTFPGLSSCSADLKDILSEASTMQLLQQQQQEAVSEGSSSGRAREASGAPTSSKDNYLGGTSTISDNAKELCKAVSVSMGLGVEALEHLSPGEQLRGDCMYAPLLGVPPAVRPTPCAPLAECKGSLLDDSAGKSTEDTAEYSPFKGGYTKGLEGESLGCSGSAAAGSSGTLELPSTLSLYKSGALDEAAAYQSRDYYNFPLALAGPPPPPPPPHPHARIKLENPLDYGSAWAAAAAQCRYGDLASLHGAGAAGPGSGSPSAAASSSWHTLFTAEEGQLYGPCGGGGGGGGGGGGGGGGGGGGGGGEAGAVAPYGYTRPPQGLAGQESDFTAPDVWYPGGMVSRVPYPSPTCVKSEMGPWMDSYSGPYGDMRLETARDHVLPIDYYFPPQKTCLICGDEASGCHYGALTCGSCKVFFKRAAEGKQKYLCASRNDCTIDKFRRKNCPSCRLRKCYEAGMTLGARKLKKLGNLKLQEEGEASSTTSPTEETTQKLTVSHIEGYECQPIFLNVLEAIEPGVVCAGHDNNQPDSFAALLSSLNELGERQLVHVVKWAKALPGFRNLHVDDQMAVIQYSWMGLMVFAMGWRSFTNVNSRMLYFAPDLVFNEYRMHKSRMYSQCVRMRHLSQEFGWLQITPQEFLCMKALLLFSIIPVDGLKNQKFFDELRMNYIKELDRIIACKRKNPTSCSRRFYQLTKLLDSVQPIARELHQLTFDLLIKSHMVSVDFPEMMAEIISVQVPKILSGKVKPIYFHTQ

Compound	IC50 (LNCaP) [nM]	IC50 [1] [µM]	other results
COc1cn(C2=CCC3C4CC=C5C[C@@H](NC(=O)c6ccncc6)CC[C@]5(C)C4CC[C@]23C)cn1 (some centres not stated)	436	4.07	
C[C@]12CC[C@H](NC(=O)c3ccnnc3)CC1=CCC1C2CC[C@]2(C)C(n3cnc([N+](=O)[O-])c3)=CCC12 (some centres not stated)	418	> 40	Ratio [2]: 2.5; EC50 (Androgen receptor): 3.31 µM
COc1cn(C2=CCC3C4CC=C5C[C@@H](NC(=O)c6ccnnc6)CC[C@]5(C)C4CC[C@]23C)cn1 (some centres not stated)	475	856	Ratio [2]: 2.5; EC50 (Androgen receptor): 3.88 µM
C[C@]12CC[C@H](NC(=O)c3ccnnc3)CC1=CCC1C2CC[C@]2(C)C(n3cnc(C(F)(F)F)c3)=CCC12 (some centres not stated)	819		
COc1ccc(C(=O)N[C@H]2CC[C@@]3(C)C(=CCC4C3CC[C@]3(C)C(n5cnc(C)c5)=CCC43)C2)cc1 (some centres not stated)	> 10000		
C[C@]12CC[C@H](NC(=O)c3ccnnc3)CC1=CCC1C2CC[C@]2(C)C(n3cnc(C#N)c3)=CCC12 (some centres not stated)	471	2.87	
Cc1cn(C2=CCC3C4CC=C5C[C@@H](NC(=O)c6ccc(F)cc6)CC[C@]5(C)C4CC[C@]23C)cn1 (some centres not stated)			Activity (Mus musculus): Active; Activity [3]: Dose-Dependent Effect; Activity [4]: 40%; Activity (LNCaP/AR): Active; Activity [5]: Dose-Dependent Effect; Activity [6]: Dose-Dependent Effect; Activity [7]: Active; Activity [8]: 52%; Activity [9]: 68%; Activity [10]: Dose-Dependent Effect; Activity (LNCaP C4-2B): inactive; Activity [11]: inactive; Activity (22Rv1): Active
Cc1cn(C2=CCC3C4CC=C5C[C@@H](NS(=O)(=O)c6ccc(C#N)cc6)CC[C@]5(C)C4CC[C@]23C)cn1 (some centres not stated)	3650		
CCc1cn(C2=CCC3C4CC=C5C[C@@H](NC(=O)c6ccnnc6)CC[C@]5(C)C4CC[C@]23C)cn1 (some centres not stated)	427	6.58	
Cc1cn(C2=CCC3C4CC=C5C[C@@H](NC(=O)n6ccnc6)CC[C@]5(C)C4CC[C@]23C)cn1 (some centres not stated)	6550		

Further lines, with some results ahead:

IC50 (LNCaP) [nM]	Compound	IC50 [1] [µM]	other results
608	C[C@]12CC[C@H](NC(=O)c3ccnnc3)CC1=CCC1C2CC[C@]2(C)C(n3cnc(Cl)c3)=CCC12 (some centres not stated)	24.6	
2420	Cc1cn(C2=CCC3C4CC=C5C[C@@H](NC(=O)c6ncccn6)CC[C@]5(C)C4CC[C@]23C)cn1 (some centres not stated)		
1490	C[C@]12CC[C@H](NC(=O)c3ccnnc3)CC1=CCC1C2CC[C@]2(C)C(n3cnc(Br)c3)=CCC12 (some centres not stated)		
1830	CC(O)c1cn(C2=CCC3C4CC=C5C[C@@H](NC(=O)c6ccnnc6)CC[C@]5(C)C4CC[C@]23C)cn1 (some centres not stated)		
1240	Cc1cn(C2=CCC3C4CC=C5C[C@@H](NC(=O)c6ccncn6)CC[C@]5(C)C4CC[C@]23C)cn1 (some centres not stated)		

— ChEMBL document CHEMBL5331145, “Discovery of a Novel Bifunctional Steroid Analog, YXG-158, as an Androgen Receptor Degrader and CYP17A1 Inhibitor for the Treatment of Enzalutamide-Resistant Prostate Cancer” (J Med Chem, 2023)
